Test results: ChEMBL document CHEMBL1153261, “Retro-Inverso Tripeptide Renin Inhibitors” (Bioorg Med Chem Lett, 1992)
Square brackets hold non-standard residues; d marks the D form. Peptide text beside a SMILES is read from it. * marks the point of attachment. Leu(ol) = CC(C)C[C@H](N)CO; Boc = CC(C)(C)OC(=O)*

target: T1, Renin (Homo sapiens, UniProt P00797); assay: Compound was evaluated for inhibitory activity against renin; conditions: read-out: I50
T1 sequence (P00797 whole entry): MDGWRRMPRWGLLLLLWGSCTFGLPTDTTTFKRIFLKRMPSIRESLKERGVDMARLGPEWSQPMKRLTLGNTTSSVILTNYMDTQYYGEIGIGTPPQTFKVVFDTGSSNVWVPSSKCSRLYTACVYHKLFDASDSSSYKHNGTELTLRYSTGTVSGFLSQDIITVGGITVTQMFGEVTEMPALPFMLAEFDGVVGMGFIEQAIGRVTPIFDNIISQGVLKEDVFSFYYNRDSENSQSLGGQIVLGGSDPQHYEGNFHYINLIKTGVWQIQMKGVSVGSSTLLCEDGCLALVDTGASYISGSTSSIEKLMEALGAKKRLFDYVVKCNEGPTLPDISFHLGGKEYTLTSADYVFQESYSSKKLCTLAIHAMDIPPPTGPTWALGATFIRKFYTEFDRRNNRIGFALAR

Q: Which IC50 does the source give for `CC(C)C[C@@H](CO)NC(=O)[C@H](Cc1cnc[nH]1)NC(=O)[C@H](Cc1ccccc1)NC(=O)OC(C)(C)C` (Boc-Phe-His-[Leu(ol)]) here?
A: The IC50 was 16 µM.

Q: `CC(C)C[C@@H](CO)NC(=O)[C@H](Cc1c[nH]cn1)C(=O)N[C@H](Cc1ccccc1)C(=O)NCC(C)(C)C` was tested. Which IC50 did it give?
A: Its IC50 is 1200 µM.

Q: How did the IC50 turn out when `CC(C)C[C@H](CO)C(=O)N[C@H](Cc1c[nH]cn1)C(=O)N[C@H](Cc1ccccc1)C(=O)NCC(C)(C)C` was run?
A: The IC50 was 80 µM.

Q: `CC(C)C[C@@H](CO)C(=O)N[C@H](Cc1c[nH]cn1)C(=O)N[C@H](Cc1ccccc1)C(=O)NCC(C)(C)C` was tested. Which IC50 did it give?
A: The IC50 was 20 µM.
